# Measurements from patent US20060052369A1, “Compositions and methods relating to novel compounds and targets thereof” (The Regents of the University of Michigan, priority 2004, published 2006).
# Like-named read-outs stand apart in the source and are kept apart here.
# Assays:
# [1] = target: T1, ATPase of sub-mitochondrial particles (mitochondrial F1Fo-ATPase) (Bos taurus, UniProt P13621); experiment: NADH-coupled ATP hydrolysis kinetics assay with sub-mitochondrial particles; assay type: biochemical, bovine; conditions: for mechanism of inhibition: ATP hydrolysis
# T1 construct: from tissue; host or cells: sub-mitochondrial particles (SMPs)
# Procedure: The mechanism of inhibition for ATP hydrolysis induced by Bz-423 and derivatives of Bz-423 was assayed using an NADH-coupled assay. The ATP hydrolytic activity of the sub-mitochondrial particles (hereinafter SMPs) was measured by coupling the production of ADP to the oxidation of NADH via the pyruvate kinase and lactate dehydrogenase reaction. Briefly, ATP hydrolysis SMPs (0.8 mg; 7.14 μg/well) were added to hydrolysis buffer (100 mM Tris-HCl, pH 8.0 at 25° C., 4 mM MgCl2, […], 0.2 mM EDTA) and vortexed. 125 μL of this suspension was added to each well of a 96-well plate containing 50× drug or DMSO vehicle control (1% DMSO, final). The 96-well plate was then placed at 30° C. in a Molecular Devices Versamax tunable microplate reader and allowed to incubate for 5 min. During this 5 min, a substrate-coupling mixture was prepared (containing X mM ATP, 0.2 mM NADH, 1 mM phosphoenolpyruvate (PEP), 2 U/mL pyruvate kinase (PK), and 2 U/mL lactate dehydrogenase (LDH) in hydrolysis buffer). The rate of hydrolysis was assayed over a range of ATP concentrations (0.1-4.0 mM) at each [Bz]. 125 μL of the substrate-coupling mixture was added to each well, and the rate of NADH oxidation was monitored for 10 min at 340 nm, 30° C. The measured decrease in absorbance over time (in OD/min) was converted to μmol ATP hydrolyzed/min/mg SMP (ε=6220). The velocity data was plotted versus [ATP] for each concentration of [Bz] […] To obtain Ki values and confirm that an uncompetitive model of inhibition was the best fit for the data, three-dimensional fits of the velocity, [ATP], and [Bz] were performed to solve for Vmax, Km, Ki, and Ki* [where Ki indicates Bz binding to the ATPase with the third catalytic site empty (mixed-type inhibition only), and Ki* indicates binding when all three sites have substrate bound (uncompetitive and mixed-type inhibition)]. The following equations were used: Competitive Inhibition: Vo=Vmax[S]/((1+[I]/Ki)Km+[S]) Uncompetitive Inhibition: Vo=Vmax[S]/((1+[I]/Ki*)[S]+Km) Mixed or Noncompetitive Inhibition: Vo=Vmax[S]/((1+[I]/Ki)Km+(1+[I]Ki*)[S])
# The results for the o-tert-Butyl derivative of Bz-423 are shown in Table 1 and confirm that this derivative binds the ATPase with an uncompetitive binding mechanism, similar to Bz-423.
# F1Fo-ATPase = F1Fo-ATPase (Homo sapiens, UniProt P05496); conditions: cited from earlier work
# rodents = conditions: two daily doses; cited from earlier work
# [2] = Ki*, Uncompetitive Inhibition model fit, binding when all three sites have substrate bound
# [3] = Ki, Competitive Inhibition model fit
SMILES,mechanism of inhibition [1],"Ki [1, 2]","Ki [1, 3]","Ki ([1]; Non-competitive Inhibition model fit, binding when all three sites have substrate bound, read-out: Ki*)",effect on Km ([1]; secondary plots of [Bz] versus Km),effect on Vmax ([1]; secondary plots of [Bz] versus Vmax),IC50 (F1Fo-ATPase),LD50 (rodents)
CN1C(=O)C(Cc2ccc3ccccc3c2)N=C(c2ccc(O)cc2)c2cc(Cl)ccc21 (centres unmarked) [Bz-423],uncompetitive,19 ± 5.8 µM,13.32 ± 0.1 µM,,,,,
CN1C(=O)C(Cc2ccc(OC(C)(C)C)cc2)N=C(c2ccc(O)cc2)c2cc(Cl)ccc21 (centres unmarked) [o-tert-Butyl],uncompetitive,12.7 ± 1.1 µM,9.35 ± 2.4 µM,12.7 ± 1.1 µM,decreased,decreased,,
CC[C@H]1/C=C/C=C/C[C@@H](C)[C@H](O)[C@@](C)(O)C(=O)[C@@H](C)[C@H](O)[C@@H](C)C(=O)[C@@H](C)[C@H](O)[C@@H](C)/C=C/C(=O)O[C@@H]2[C@H](C)[C@H](CC1)O[C@]1(CC[C@H](C)[C@H](C[C@@H](C)O)O1)[C@H]2C [oligomycin],,,,,,,0.01 µM,0.5 mg/kg
